These results are taken from US20230286973A1, “PROTEIN SECRETION INHIBITORS” (KEZAR LIFE SCIENCES, priority 2020, published 2023).

pEC50, pIC50: −log10 of the molar value. Like-named read-outs stand apart in the source and are kept apart here. Where only a bound is given, the exact number is not on record here.

Data set [1] has as its system PD1-ss+10aa/Gaussia Luciferase. The experiment in a line: Dox-Induced PD1-ss-Gluc Assay. As to conditions: 24 hr Dox induction, 293FRT/TO cells, read-out: 24 hr Dox Inducible PD1ssGluc 293FRT/TO: Mean IC50. The format is cell-based. The method, boiled down: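 Stable Flp-In 293 T-REx cells carried a doxycycline-inducible construct of Gaussia luciferase fused to the PD1 signal sequence plus 10 amino acids. Cells were plated the day before, then treated with compound dilutions in DMSO/media containing doxycycline at 37 °C, 5% CO2.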

Data set [2] concerns IL-2-FL/Gaussia Luciferase. In words: Dox Induced IL2-FL-Gluc Assay. The format is cell-based. Conditions: for pIC50: 24 hr Dox induction, 293FRT/TO cells, read-out: 24 hr Dox Inducible IL2FLGluc 293FRT/TO: Mean IC50; for 24 hr Dox Inducible IL2FLGluc 293FRT/TO: IL2/PD1: ratio of IL2FLGluc IC50 to PD1ssGluc IC50. The method, boiled down:
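Cells are plated one day ahead, then receive compound dilutions in DMSO/media with doxycycline and incubate at 37° C, 5% CO2. They are Flp-In 293 T-REx cells expressing a full-length IL-2 (amino acids 1-153)–Gaussia luciferase fusion under T-REx control.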

The subject of data set [3] is HER3-ss+4aa/Gaussia Luciferase. In words: Dox-Induced Her3-ss-Gluc Assay. Conditions: 24 hr Dox induction, 293FRT/TO cells, read-out: 24 hr Dox Inducible Her3(ss + 4)Gluc 293FRT/TO: Mean IC50. The format is cell-based. In outline:
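Cells were seeded a day ahead, then given compound diluted in DMSO/media with doxycycline to induce expression of the HER3 signal sequence (+4 aa)–Gaussia luciferase fusion. Incubation was at 37° C., 5% CO2, in a stable Flp-In 293 T-REx line.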

Data set [4] in a line: Liver Microsome Stability Assay (human). As to conditions: human liver microsomes, with NADPH, 1.0 uM compound. (Liver microsomes are a subcellular fraction often used to study metabolism.)
Method: (§1) Stability of a compound was assessed in the presence of liver microsomes from various sources—mouse, rat, monkey and human liver microsomes. 1.0 uM compound, 0.4% DMSO in 0.1 M Potassium Phosphate with 1.0 mg/mL liver microsomes, were incubated at 37° C. with or without 1 mM NADPH. The samples were quenched at 0, and 30 minutes.
Data set [5] in a line: Liver Microsome Stability Assay (rat). As to conditions: rat liver microsomes, with NADPH, 1.0 uM compound.
Method: as §1
Data set [6] deals with multiple myeloma cell line U266B1. In words: U266 Cell Viability Assay. Conditions: Homo sapiens, U-266, 48 h, U266B1 cells, Celltiter-Glo. The format is cell-based, human. In outline: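 Steps: culture in RPMI 1640 plus 10% FBS and 2 mM glutamine; plate and add compound dilutions; incubate 48 hours at 37° C., 5% CO2; add CellTiter-Glo and quantify luciferase signal.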
A general note: Cellular ATP, detected with luciferase, serves as a proxy for viable cell number.

In data set [7] the test system is TNFα-FL/Gaussia Luciferase. In words: Dox Induced TNFα-FL-Gluc Assay. The format is cell-based. As to conditions: for pIC50: 24 hr Dox induction, 293FRT/TO cells, read-out: 24 hr Dox Inducible TNFaFLGluc 293FRT/TO: Mean IC50; for 24 hr Dox Inducible TNFaFLGluc 293FRT/TO: TNF/PD1: ratio of TNFaFLGluc IC50 to PD1ssGluc IC50. In outline:
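Stereoisomer mixtures were tested where stereochemistry is not drawn. Induction used doxycycline added together with compound dilutions in DMSO/media to Flp-In 293 T-REx cells carrying a T-REx-regulated TNFα (aa 1-233)-Gaussia luciferase construct, then incubated at 37 °C, 5% CO2.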

Data set [8] can be described thus: Liver Microsome Stability Assay (mouse). Conditions: mouse liver microsomes, with NADPH, 1.0 uM compound.
Method: as §1
In data set [9] the test system is multiple myeloma cell line NCI-H929. In words: H929 Cell Viability Assay. The format is cell-based, human. Conditions: Homo sapiens, NCI-H929, 48 h, NCI-H929 cells, Celltiter-Glo. The method, boiled down: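 Luminescent ATP detection (CellTiter-Glo) after 48 hours of compound exposure measures viability. Cells were plated in RPMI 1640 containing 10% fetal bovine serum and kept at 37° C under 5% CO2.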

Data set [10] can be described thus: Liver Microsome Stability Assay (monkey). As to conditions: monkey liver microsomes, with NADPH, 1.0 uM compound.
Method: as §1
[11] abbreviates: '<=>' given where both are I.A.

Consider `O=C(Nc1nc([C@H]2CCCN2c2ccccc2)cs1)c1cccn1CC1CCC(F)(F)C1` (stereo partly drawn) [Compound C123, 1-((3,3-difluorocyclopentyl)methyl)-N-(4-((R)-1-phenylpyrrolidin-2-yl)thiazol-2-yl)-1H-pyrrole-2-carboxamide], for which the pIC50 in data set [1] (mean) is 6.42; in data set [2] (mean) it was 6.11; in [3] (mean), 6.21; in [7] (mean) it was 5.07. Further, the “24 hr Dox Inducible IL2FLGluc 293FRT/TO: IL2/PD1” value in data set [2] (setting [11]) is reported as 2.1. Also, the “Liver Microsome Stability (Multiple Species): Human - % Remaining after 30 min w/NADPH” value in data set [4] worked out at 58.5%. In data set [5], the “Liver Microsome Stability (Multiple Species): Rat - % Remaining after 30 min w/NADPH” value came to 6.16%. The pEC50 in data set [6] and in data set [9] was less than 4.60 throughout. In data set [7] (setting [11]), the “24 hr Dox Inducible TNFaFLGluc 293FRT/TO: TNF/PD1” value stood at 22.7. Besides, the “Liver Microsome Stability (Multiple Species): Mouse - % Remaining after 30 min w/NADPH” value in data set [8] is recorded as 23.6%. Also, the “Liver Microsome Stability (Multiple Species): Monkey - % Remaining after 30 min w/NADPH” value in data set [10] worked out at 3.11%.

On to `CC(C)n1ccc(/C=C/c2csc(NC(=O)c3cccn3Cc3ccnc(F)c3)n2)n1` [Compound B74, (E)-1-((2-fluoropyridin-4-yl)methyl)-N-(4-(2-(1-isopropyl-1H-pyrazol-3-yl)vinyl)thiazol-2-yl)-1H-pyrrole-2-carboxamide], for which the pIC50 in data set [1] is 6.38; in [2] it was 5.27; in [3], 5.39; in data set [7] it was 5.00. For the same compound, the “24 hr Dox Inducible IL2FLGluc 293FRT/TO: IL2/PD1” value in data set [2] is 13. The “Liver Microsome Stability (Multiple Species): Human - % Remaining after 30 min w/NADPH” value in data set [4] is on record as 0.44%. In [5], the “Liver Microsome Stability (Multiple Species): Rat - % Remaining after 30 min w/NADPH” value was found to be 0.43%. For the same compound, the pEC50 in [6] is 5.26; in data set [9] it was 5.28. The “24 hr Dox Inducible TNFaFLGluc 293FRT/TO: TNF/PD1” value in data set [7] turned out to be 23.9. In data set [8], the “Liver Microsome Stability (Multiple Species): Mouse - % Remaining after 30 min w/NADPH” value is listed as 3.41%. In addition, the “Liver Microsome Stability (Multiple Species): Monkey - % Remaining after 30 min w/NADPH” value in data set [10] is on record as 0.13%.

In the case of `O=C(Nc1nc([C@H]2C[C@@H](OCCO)CN2c2ccccc2)cs1)c1cccn1Cc1ccncc1` [Compound E32], the pIC50 in data set [1] (mean) was 5.99; in data set [2] (mean) it was 5.40; in data set [3] (mean) it was 5.51; in data set [7] (mean), 5.15. The “24 hr Dox Inducible IL2FLGluc 293FRT/TO: IL2/PD1” value in data set [2] (setting [11]) was 3.9. Also, the “Liver Microsome Stability (Multiple Species): Human - % Remaining after 30 min w/NADPH” value in data set [4] is on record as 0.21%. For the same compound, the “Liver Microsome Stability (Multiple Species): Rat - % Remaining after 30 min w/NADPH” value in [5] turned out to be 0.79%. The results for the pEC50 in data set [6] and in data set [9] were less than 4.60 and 4.60, respectively. Also, in data set [7] (setting [11]), the “24 hr Dox Inducible TNFaFLGluc 293FRT/TO: TNF/PD1” value came to 6.91. For the same compound, the “Liver Microsome Stability (Multiple Species): Mouse - % Remaining after 30 min w/NADPH” value in [8] stood at 3.3%. Further, the “Liver Microsome Stability (Multiple Species): Monkey - % Remaining after 30 min w/NADPH” value in data set [10] is listed as 0.09%.

For the compound `Cc1cnc(/C=C/c2csc(NC(=O)c3cccn3Cc3ccncc3)n2)o1` [Compound B35, (E)-N-(4-(2-(5-methyloxazol-2-yl)vinyl)thiazol-2-yl)-1-(pyridin-4-ylmethyl)-1H-pyrrole-2-carboxamide], the pIC50 in [1] is 6.33; in data set [2], less than 4.60; in data set [3], less than 4.60; in [7], less than 4.60. The “24 hr Dox Inducible IL2FLGluc 293FRT/TO: IL2/PD1” value in [2] was greater than 54. Besides, the “Liver Microsome Stability (Multiple Species): Human - % Remaining after 30 min w/NADPH” value in data set [4] is on record as 2.88%. Further, the “Liver Microsome Stability (Multiple Species): Rat - % Remaining after 30 min w/NADPH” value in data set [5] was 0.46%. Further, the pEC50 in [6] and in [9] was less than 4.60 throughout. Moreover, in data set [7], the “24 hr Dox Inducible TNFaFLGluc 293FRT/TO: TNF/PD1” value is on record as greater than 53.7. The “Liver Microsome Stability (Multiple Species): Mouse - % Remaining after 30 min w/NADPH” value in data set [8] was found to be 2.61%. Moreover, the “Liver Microsome Stability (Multiple Species): Monkey - % Remaining after 30 min w/NADPH” value in data set [10] was found to be 1.04%.

Regarding `CNCCOc1ccc(N2CCC[C@@H]2c2csc(NC(=O)c3cccn3Cc3ccnc(F)c3)n2)cc1` [Compound A103, (R)-1-((2-fluoropyridin-4-yl)methyl)-N-(4-(1-(4-(2-(methylamino)ethoxy)phenyl)pyrrolidin-2-yl)thiazol-2-yl)-1H-pyrrole-2-carboxamide], the pIC50 in data set [1] is 6.53; in data set [2], 6.07; in [3], 6.17; in data set [7], 5.06. For the same compound, the “24 hr Dox Inducible IL2FLGluc 293FRT/TO: IL2/PD1” value in [2] was found to be 2.9. Moreover, in data set [4], the “Liver Microsome Stability (Multiple Species): Human - % Remaining after 30 min w/NADPH” value is on record as 67%. In data set [5], the “Liver Microsome Stability (Multiple Species): Rat - % Remaining after 30 min w/NADPH” value is listed as 28.3%. For the same compound, the figures for the pEC50 in data set [6] and in data set [9] were 5.25 and 5.39, respectively. Moreover, the “24 hr Dox Inducible TNFaFLGluc 293FRT/TO: TNF/PD1” value in [7] turned out to be 29.2. Also, the “Liver Microsome Stability (Multiple Species): Mouse - % Remaining after 30 min w/NADPH” value in [8] is on record as 55%. Further, the “Liver Microsome Stability (Multiple Species): Monkey - % Remaining after 30 min w/NADPH” value in [10] came to 47.2%.

With `CS(=O)(=O)N1CC(Oc2ccc(N3CCC[C@@H]3c3csc(NC(=O)c4cccn4Cc4ccnc(F)c4)n3)cc2)C1` [Compound A132, (R)-1-((2-fluoropyridin-4-yl)methyl)-N-(4-(1-(4-((1-(methylsulfonyl)azetidin-3-yl)oxy)phenyl)pyrrolidin-2-yl)thiazol-2-yl)-1H-pyrrole-2-carboxamide], the pIC50 in data set [1] is 7.24; in [2], 6.98; in [3] it was 7.02; in data set [7], 5.98. In addition, the “24 hr Dox Inducible IL2FLGluc 293FRT/TO: IL2/PD1” value in data set [2] is 1.8. The “Liver Microsome Stability (Multiple Species): Human - % Remaining after 30 min w/NADPH” value in data set [4] came to 15.1%. Also, in data set [5], the “Liver Microsome Stability (Multiple Species): Rat - % Remaining after 30 min w/NADPH” value is listed as 47.1%. The values for the pEC50 in [6] and in [9] were less than 4.60 and 5.60, respectively. Further, the “24 hr Dox Inducible TNFaFLGluc 293FRT/TO: TNF/PD1” value in data set [7] was 18.5. The “Liver Microsome Stability (Multiple Species): Mouse - % Remaining after 30 min w/NADPH” value in [8] turned out to be 34.6%. The “Liver Microsome Stability (Multiple Species): Monkey - % Remaining after 30 min w/NADPH” value in data set [10] was found to be 8.42%.

As to `CC(=O)N1CC(CCc2ccc(N3CCC[C@@H]3c3csc(NC(=O)c4cccn4Cc4ccnc(F)c4)n3)cc2)C1` [Compound A176], the pIC50 in [1] is 7.82; in [2], 7.38; in data set [3], 7.51; in data set [7], 6.31. Further, the “24 hr Dox Inducible IL2FLGluc 293FRT/TO: IL2/PD1” value in data set [2] was 2.8. Also, in data set [4], the “Liver Microsome Stability (Multiple Species): Human - % Remaining after 30 min w/NADPH” value was 1.34%. The “Liver Microsome Stability (Multiple Species): Rat - % Remaining after 30 min w/NADPH” value in data set [5] came out at 18.6%. Besides, the values for the pEC50 in data set [6] and in data set [9] were less than 4.60 and 6.36, respectively. In addition, the “24 hr Dox Inducible TNFaFLGluc 293FRT/TO: TNF/PD1” value in [7] came out at 32.4. For the same compound, the “Liver Microsome Stability (Multiple Species): Mouse - % Remaining after 30 min w/NADPH” value in data set [8] was 2.72%. In data set [10], the “Liver Microsome Stability (Multiple Species): Monkey - % Remaining after 30 min w/NADPH” value was 0.16%.

Broadly, the pEC50 is the EC50 on a negative log10 scale, so that one unit is a factor of ten.
